For one molecule, Kd and koff results are on record in article PMC10298926, “Biophysical Characterization of the Binding Mechanism between the MATH Domain of SPOP and Its Physiological Partners” (International Journal of Molecular Sciences, 2023).

The term Kd denotes a measure of binding affinity in units of concentration. A word on the koff: it is the rate constant with which the complex falls apart. A low value points to a long-lived complex.

Where a SMILES comes first, the peptide text is derived from it.

For experiment [1], the target named is T1, SPOP MATH WT (Homo sapiens, UniProt O43791). The experiment is described as follows: Equilibrium binding, FRET (Trp to dansyl), fluorescence titration. The conditions noted are these: read-out: Equilibrium KD; dansylated peptide 0 to 40 µM; constant SPOP MATH WT (2 µM in methods, 1 µM in results); excitation 280 nm, emission 300-400 nm; 298 K; hyperbolic fit. The source says:
The MATH domain of SPOP exerts its functions by specifically recognizing different substrates and, therefore, acting as an adaptor module between SPOP and its physiological ligands. In an effort to provide a complete characterization of SPOP MATH binding mechanisms, we investigated the recognition of three peptides mimicking a specific region of the substrates Puc (region 96–105), MacroH2A (region 166–179), and PTEN (region 354–368). […] Moreover, the three-dimensional structure of SPOP MATH in complexes with each of the peptides has been previously reported (3HQH, 3HQL, and 4OV1 PDB entries, respectively). Similar to previous work on other protein–protein recognition modules, we employed peptides carrying a covalently attached N-terminal dansyl fluorophore. Binding was then followed by measuring the FRET (Forster resonance energy transfer) between the three tryptophan residues of the SPOP MATH domain (donor) and the dansyl group of the peptides (acceptor).
To address the equilibrium binding affinity of SPOP MATH and its substrates, a fixed concentration of the protein (1 µM) was challenged with increasing peptide concentrations. In all cases, the fluorescence-monitored transition returned a hyperbolic behavior as described in the Section 4, which allowed estimating a dissociation constant of 1.4 ± 0.4 µM, 1.6 ± 0.2 µM, and 5.5 ± 0.5 µM for Puc, MacroH2A, and PTEN, respectively (Figure 2). These values appear partly consistent with what was previously reported by Zhuang et al. by using surface plasmon resonance. […]
Equilibrium binding experiments were performed on a Fluoromax-4 single-photon-counting spectrofluorometer (Jobin-Yvon, Newark, NJ, USA). The SPOP MATH domain was excited at 280 nm and emission spectra were recorded between 300 and 400 nm, at increasing dansylated peptide concentrations. […]

For experiment [2], the target named is T1, SPOP MATH WT. Nature of the experiment: Stopped-flow displacement. The experiment is classed as binding. The following applies: preincubated complex (both 8 µM) mixed with 50 μM nondansylated peptide, 298 K, average of five single traces. As to the method: To infer the mechanism of recognition of SPOP MATH, we resorted to performing time-resolved kinetic experiments. SPOP MATH was rapidly mixed with increasing concentrations of dansylated peptides (from 2 to 10 µM for Puc and MacroH2A, and from 2 to 40 µM for PTEN) in a stopped-flow apparatus at 298 K. The binding traces obtained by monitoring the time-resolved fluorescence were satisfactorily fitted to a single exponential equation, allowing calculating the observed rate constants kobs at different peptide concentrations. We then plotted the kobs values over the concentration of dansylated peptide and fitted the data to a simple linear function equation: kobs=kon Peptide+koff where kobs is the observed rate constant; kon and koff are the microscopic association and dissociation rate constants, respectively (Figure 2). The slope and y-axis intercept represent the microscopic association and dissociation rate constant, respectively. To minimize the error associated with the indirect measurement of the dissociation rate constant, we carried out displacement experiments to determine the koff values. The displacement experiments were designed by mixing the preformed complex SPOP MATH-dansylated peptides with a high excess of nondansylated peptide, as described in the Section 4. […] On the basis of these observations, it is possible to conclude that, in the case of binding to MacroH2A and PTEN, there is the presence of an additional step, which escapes detection by stopped-flow experiments and is likely to be negligible in the case of Puc. […] We note that such a case closely resembles the presence of a so-called burst phase, which is frequently observed in protein-folding studies.
Microscopic dissociation rate constants (koff) were directly measured by performing displacement experiments on an Applied Photophysics DX-17MV stopped-flow apparatus (Applied Photophysics). […] The samples were excited at 280 nm and fluorescence emission was collected by using a 330 ± 30 nm bandpass filter. […] The observed rate constants were calculated from the average of five single traces. […]

T1 sequence (O43791 1-182): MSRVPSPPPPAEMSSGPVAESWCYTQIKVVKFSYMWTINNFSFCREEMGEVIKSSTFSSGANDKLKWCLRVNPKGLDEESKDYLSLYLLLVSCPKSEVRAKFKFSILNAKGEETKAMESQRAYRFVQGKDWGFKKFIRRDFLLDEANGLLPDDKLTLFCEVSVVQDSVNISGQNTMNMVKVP

Regarding `CC(C)[C@H](NC(=O)[C@H](CCC(=O)O)NC(=O)[C@H](CC(=O)O)NS(=O)(=O)c1cccc2c(N(C)C)cccc12)C(=O)N[C@H](C(=O)N[C@@H](CO)C(=O)N[C@H](C(=O)N[C@H](C(=O)N[C@@H](CO)C(=O)N[C@@H](CO)C(=O)N[C@@H](CO)C(=O)O)[C@@H](C)O)[C@@H](C)O)[C@@H](C)O` [Puc] (HELM PEPTIDE1{[CN(C)c1cccc2c(S(=O)(=O)[*:2])cccc12].D.E.V.T.S.T.T.S.S.S}$$$$V2.0), the Kd on SPOP MATH WT [1] worked out at 1400 ± 500 nM. At SPOP MATH WT [2], this molecule came in with a koff of 26.1 ± 0.1 s⁻¹.
